Measurements from patent publication US7452680B2, “MCT1 transporters expressed in blood brain barrier cells” (XenoPort, Inc., priority 2004, dated 2008).

What was measured:
[1] = biological target: T1, MCT1 (Homo sapiens, UniProt P53985); details: cited from earlier work
T1 sequence (P53985 1-500): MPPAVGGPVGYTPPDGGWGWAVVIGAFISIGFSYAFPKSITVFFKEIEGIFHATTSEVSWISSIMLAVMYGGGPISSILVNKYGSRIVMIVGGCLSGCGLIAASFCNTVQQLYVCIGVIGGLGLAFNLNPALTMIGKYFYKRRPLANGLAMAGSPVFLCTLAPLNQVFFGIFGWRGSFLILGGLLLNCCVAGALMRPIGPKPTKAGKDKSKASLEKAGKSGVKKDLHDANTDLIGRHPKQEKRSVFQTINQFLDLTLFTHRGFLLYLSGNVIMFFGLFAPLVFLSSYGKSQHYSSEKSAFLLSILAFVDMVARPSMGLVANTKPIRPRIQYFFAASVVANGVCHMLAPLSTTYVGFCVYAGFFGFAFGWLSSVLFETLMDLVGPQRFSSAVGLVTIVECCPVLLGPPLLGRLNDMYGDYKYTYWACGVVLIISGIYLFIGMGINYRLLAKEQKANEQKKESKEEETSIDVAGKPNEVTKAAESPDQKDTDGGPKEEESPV
T1 sequence (P35613 140-385 partner limits assumed): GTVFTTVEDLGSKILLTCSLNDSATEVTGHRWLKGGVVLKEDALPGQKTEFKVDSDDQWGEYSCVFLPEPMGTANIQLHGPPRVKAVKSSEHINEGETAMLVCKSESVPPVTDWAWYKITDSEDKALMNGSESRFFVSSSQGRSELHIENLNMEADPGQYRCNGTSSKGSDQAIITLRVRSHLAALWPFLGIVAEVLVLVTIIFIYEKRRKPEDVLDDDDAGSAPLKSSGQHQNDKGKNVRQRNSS

[2] = biological target: T2, hMCT1-rCD147 fusion protein (Homo sapiens, UniProt P53985, D490E); test: Competitive binding and uptake assay, inhibition of 14C-lactate uptake (FIG. 13); type: cell-based; design: rCD147 (rat CD147/basigin) fusion partner; expressed in transfected cells; details: cells expressing the fusion protein vs cells endogenously expressing hMCT1
T2 sequence (P53985 with tags, fused parts or gaps D490E): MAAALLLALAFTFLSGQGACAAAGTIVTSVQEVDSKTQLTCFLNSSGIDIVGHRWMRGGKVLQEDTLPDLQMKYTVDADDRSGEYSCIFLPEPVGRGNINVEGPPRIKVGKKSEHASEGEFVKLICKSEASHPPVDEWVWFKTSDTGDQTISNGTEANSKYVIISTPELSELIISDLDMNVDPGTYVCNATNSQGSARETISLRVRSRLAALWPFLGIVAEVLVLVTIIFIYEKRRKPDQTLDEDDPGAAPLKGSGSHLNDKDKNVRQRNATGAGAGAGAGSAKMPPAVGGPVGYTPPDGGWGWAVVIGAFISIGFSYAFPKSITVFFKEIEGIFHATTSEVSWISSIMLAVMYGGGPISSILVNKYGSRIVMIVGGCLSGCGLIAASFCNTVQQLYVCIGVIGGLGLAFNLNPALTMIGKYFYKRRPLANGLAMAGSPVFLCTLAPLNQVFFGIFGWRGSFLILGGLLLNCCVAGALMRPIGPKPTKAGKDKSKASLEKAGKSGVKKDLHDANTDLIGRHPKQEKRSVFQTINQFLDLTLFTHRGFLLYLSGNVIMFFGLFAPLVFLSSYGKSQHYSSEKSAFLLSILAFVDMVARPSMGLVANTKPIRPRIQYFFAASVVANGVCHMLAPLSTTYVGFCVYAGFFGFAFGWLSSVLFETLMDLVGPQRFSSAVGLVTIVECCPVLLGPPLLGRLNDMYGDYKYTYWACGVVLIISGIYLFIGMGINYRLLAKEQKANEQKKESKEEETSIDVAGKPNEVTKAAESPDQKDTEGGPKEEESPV
Procedure: To determine whether a compound interacts with the MCT1 transporter, a competition-binding assay was developed. This assay measures how different concentrations of a test compound block the uptake of a radiolabeled substrate such as lactate. The half-maximal inhibitory concentration (IC50) for inhibition of transport of a substrate by a test compound is an indication of the affinity of the test compound for the MCT1 transporter. Competition binding studies were performed as follows. HEK-PEAK cells were plated in 96-well plates at 100,000 cells/well and incubated at 37° C. for 24 hours. Radiolabeled ^14C-lactic acid (˜50,000 cpm/well) was added to each well in the presence and absence of various concentrations of unlabeled lactic acid in duplicate or triplicate. Competition experiments were performed in an MES-based saline buffer adjusted to pH 6.8. Plates were incubated at room temperature for 2 minutes. Excess radiolabeled substrate was removed and cells were washed three times with a 96-well plate washer with cold assay buffer. Scintillation fluid was added to each well, the plates were sealed and counted in a 96-well plate-based scintillation counter. Data were graphed and analyzed using non-linear regression analysis with Prism Software (GraphPad, Inc., San Diego, Calif.). Competition binding in HEK-PEAK cells is illustrated in FIG. 4B.
To confirm the pharmacology of the hMCT1-rCD147 fusion proteins was the same as that of the unmodified version of hMCT1, the hMCT1-rCD147-expressing cells lines were tested in a competitive binding and uptake assay. Eight different MCT1 substrates were tested for their ability to inhibit the uptake of ^14C-lactate into isolated cell lines inducibly or constitutively expressing hMCT1-rCD147 fusion protein and into cells endogenously expressing hMCT1.

[3] = biological target: T1, MCT1; test: 14C-lactate uptake assay in HEK-TREx cells transfected with tet-MCT1 inducible construct; type: cell-based; design: expressed in transfected cells; details: tet-induced vs non-induced
Procedure: Human MCT1 (hMCT1) is expressed at high levels in most mammalian cell lines. hMCT1 is a high capacity transporter, so low levels of hMCT1 expression may result in significant substrate transport. To control the level of hMCT expression, an inducible tet promoter-hMCT1 expression construct was prepared using the Gateway plasmid cloning system following manufacturers instructions (Invitrogen). The tet-MCT1 inducible construct was transfected into HEK-TREx cells using Fugene transfection following manufacturers instructions (Roche Biosciences). When the transfected cells were tested in an uptake assay, the amount of tetracycline-inducible MCT1 -mediated transport of ^14C-lactate was about 20% higher than the level of endogenous uptake seen in non-induced cells. The addition of an excess of unlabeled lactate competed with the uptake of ^14C-lactate.

[4] = biological target: T1, MCT1; test: 14C-lactate uptake in Xenopus oocytes injected with MCT1 cRNA (FIG. 2); type: cell-based; design: expressed in transfected cells; host or cells: Xenopus oocytes injected with MCT1 cRNA; details: oocytes expressing MCT1 vs oocytes expressing MCT4 or noninjected control oocytes
[5] = biological target: T1, MCT1; test: Inducible uptake by LLCPK-TREx cell line containing pTREx-hMCT1 (FIG. 10); type: cell-based; design: expressed in transfected cells; host or cells: LLCPK-TREx cells; details: vs non-tet treated (un-induced) or parental LLCPK cells; pH 6.8, 2 minutes
Procedure: FIG. 10 depicts the results of an uptake experiment showing inducible uptake of (A) ^14C-lactate and (B) thiopheneglyoxylic acid by the LLCPK-TREx cell line containing plasmid pTREx-hMCT1. Uptake of ^14C-lactate was measured as follows: radiolabeled ^14C-lactic acid (˜50,000 cpm/well) was added to each well in triplicate. Experiments were performed in an MES-based saline buffer adjusted to pH 6.8. Plates were incubated at room temperature for 2 minutes. Excess radiolabeled substrate was removed and cells were washed three times with a 96-well plate washer with cold assay buffer. Scintillation fluid was added to each well, the plates were sealed and counted in a 96-well plate-based scintillation counter. Uptake of thiopheneglyoxylic acid was measured similarly to ^14C-lactate, except cells were washed and compound extracted with a 50% ethanol solution. Levels of extracted thiopheneglyoxylate were measured using mass spectroscopy as described above. Negative control values were determined by measuring the uptake into non-tet treated (un-induced) or parental LLCPK (constitutive) cells.

[6] = biological target: PgP (Homo sapiens, UniProt P08183); test: Cellular transwell monolayer efflux assay, MDCK cells transfected with TREx-PgP (FIG. 8)
Procedure: A third type of efflux transporter assay is the cellular transwell monolayer efflux assay. […] The cells form a polarized monolayer. The transwell dishes have apical and basolateral chambers that are separated by the filter membrane on which the polarized monolayer is situated. Assays are performed by placing a test compound in either the apical or basolateral chamber, followed by sampling the opposite chamber after a predetermined period of time such as 60-120 minutes and measuring the amount of the test compound. The test compound can be measured by methods such as radiolabel detection or LC-MS-MS analysis. Assays are performed in the presence and absence of an efflux transporter inhibitor or competitor. Efflux transporter inhibitors or competitors increase apical to basolateral transport and decrease basolateral to apical transport of compounds that are efflux transporter substrates. Apparent permeability (Papp) of test compounds is measured. […] Test compounds that generate ratios between 1.5 and 2.0 require additional testing to determine if they are efflux transporter substrates.
MDCK cells transfected with the tetracycline-inducible TREx-PgP expression vector were seeded on polycarbonate filter membranes in transwell dishes and grown for 3-5 days, yielding a polarized monolayer with tight junctions between cells. […] The left set of bars depicts apical to basolateral transport, while the right set of bars depicts basolateral to apical transport.

[7] = biological target: T2, hMCT1-rCD147 fusion protein; test: Uptake of tritiated GHB, cells expressing hMCT1-rCD147 fusion protein (FIG. 14); type: cell-based; design: rCD147 (rat CD147/basigin) fusion partner; expressed in transfected cells; host or cells: LLCPK-TREx cells (pTREx-hMCT1-rCD147 inducible, pMO-hMCT1-rCD147 constitutive); details: inducibly or constitutively expressing cells, compared with uninduced or control cells
Procedure: (§1) To determine whether […] (GHB) is a substrate for MCT1, an uptake assay was performed using tritiated […].

[8] = biological target: T1, MCT1; test: Uptake of tritiated GHB, cells over expressing MCT1 protein (FIG. 14); type: cell-based; design: expressed in transfected cells; host or cells: LLCPK-TREx cells; details: compared with control cells
Procedure: as §1

[9] = 2.5 nM 3H-vinblastine, in the presence of 250 μM verapamil

Sequence of PgP (P08183 whole entry): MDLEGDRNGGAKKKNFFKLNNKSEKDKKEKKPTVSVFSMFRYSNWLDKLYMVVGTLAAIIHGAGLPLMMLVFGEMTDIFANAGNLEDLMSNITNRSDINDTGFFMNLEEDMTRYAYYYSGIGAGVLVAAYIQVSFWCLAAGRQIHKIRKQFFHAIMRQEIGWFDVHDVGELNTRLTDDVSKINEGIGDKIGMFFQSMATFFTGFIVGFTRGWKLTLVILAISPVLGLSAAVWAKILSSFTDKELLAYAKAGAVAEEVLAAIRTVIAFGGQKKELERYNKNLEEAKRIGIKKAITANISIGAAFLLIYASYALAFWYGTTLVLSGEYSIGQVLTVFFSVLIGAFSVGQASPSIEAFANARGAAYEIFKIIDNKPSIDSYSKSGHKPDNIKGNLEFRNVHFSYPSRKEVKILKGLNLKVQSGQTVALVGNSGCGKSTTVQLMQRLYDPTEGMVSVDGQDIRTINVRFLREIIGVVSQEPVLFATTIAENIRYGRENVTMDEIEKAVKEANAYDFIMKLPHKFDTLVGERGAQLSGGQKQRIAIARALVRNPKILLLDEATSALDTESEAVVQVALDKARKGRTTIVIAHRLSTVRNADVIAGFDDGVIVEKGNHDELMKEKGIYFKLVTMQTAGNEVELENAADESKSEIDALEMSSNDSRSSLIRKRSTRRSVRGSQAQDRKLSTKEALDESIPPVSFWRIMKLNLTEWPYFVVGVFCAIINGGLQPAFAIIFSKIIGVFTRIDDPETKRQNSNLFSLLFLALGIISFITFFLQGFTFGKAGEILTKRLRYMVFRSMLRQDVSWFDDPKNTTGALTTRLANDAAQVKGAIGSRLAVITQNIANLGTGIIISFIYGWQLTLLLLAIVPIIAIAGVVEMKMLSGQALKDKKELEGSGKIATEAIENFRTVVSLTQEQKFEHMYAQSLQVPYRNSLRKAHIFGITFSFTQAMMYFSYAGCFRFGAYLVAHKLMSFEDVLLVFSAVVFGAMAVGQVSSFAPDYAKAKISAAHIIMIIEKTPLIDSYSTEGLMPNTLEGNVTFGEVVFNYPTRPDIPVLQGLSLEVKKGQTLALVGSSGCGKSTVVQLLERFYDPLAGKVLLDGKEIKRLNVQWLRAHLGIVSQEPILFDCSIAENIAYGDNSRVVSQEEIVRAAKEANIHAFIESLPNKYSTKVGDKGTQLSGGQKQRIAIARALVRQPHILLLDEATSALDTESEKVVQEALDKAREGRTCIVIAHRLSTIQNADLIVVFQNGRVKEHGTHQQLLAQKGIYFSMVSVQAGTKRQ

Molecule	Reported Affinity for MCT1 [1] [mM]	affinity for the MCT1-rCD147 fusion protein compared with hMCT1 alone [2]	other results
CCCC(=O)O [Butyric Acid]	8	–	–
O=C(O)c1ccccc1 [Compound 5, benzoic acid]	–	higher affinity	–
CC(C)C[C@H](O)C(=O)O [Compound 2, L-alpha-hydroxy-isocaproic acid]	–	higher affinity	–
O=C(O)Cc1ccccc1 [Compound 8, phenylacetic acid]	–	higher affinity	–
^14C-lactic acid [^14C-lactate]	–	–	tetracycline-inducible MCT1-mediated transport, higher than endogenous uptake in non-induced cells [3]: about 20%; 14C-lactate uptake [4]: higher levels; MCT1 substrate uptake upon induction with tetracycline [5]: significant increase
O=C(O)c1cccnc1 [Nicotinic Acid, nicotinic acid]	4	higher affinity	–
CC(=O)C(=O)O [Pyruvic Acid]	1	–	–
CC[C@]1(O)C[C@@H]2CN(CCc3c([nH]c4ccccc34)[C@@](C(=O)OC)(c3cc4c(cc3OC)N(C)[C@H]3[C@@](O)(C(=O)OC)[C@H](OC(C)=O)[C@]5(CC)C=CCN6CC[C@]43[C@@H]65)C2)C1 [^3H-vinblastine]	–	–	Apical to basolateral transport [6, 9]: strongly increased; basolateral to apical transport [6, 9]: strongly decreased; efflux transporter substrate status ([6]; conclusion from transport with and without verapamil): substrate of PgP
O=C(O)c1cc(/N=N/c2ccc(S(=O)(=O)Nc3ccccn3)cc2)ccc1O [Sulfasalazine]	0.15	–	–
O=C(O)c1ccccc1O [Salicylic Acid]	>5	–	–
O=C(O)C(=O)c1cccs1 [2-Thiophene glyoxylate]	3	higher affinity	MCT1 substrate uptake upon induction with tetracycline [5]: significant increase
CC1(C)S[C@@H]2[C@H](NC(=O)C(C(=O)Oc3ccc4c(c3)CCC4)c3ccccc3)C(=O)N2[C@H]1C(=O)O (stereo partly drawn) [Carindicillin]	>5	–	–
O=C(CCc1ccc(O)cc1)c1c(O)cc(O)cc1O [Phloretin]	0.2	–	–
CCC(O)C(=O)O (stereo not drawn) [GHB, α-hydroxybutyrate]	–	–	uptake of labeled GHB [7]: increased uptake; uptake of labeled GHB [8]: increased uptake
CC(O)C(=O)O (stereo not drawn) [Lactic Acid, lactic acid]	2	higher affinity	–
